Consider 2 compounds from PMC3017236 (Clinical cancer research : an official journal of the …, 2010).

Read-outs that look alike come from different tables or passages of the source.

One may read the Kp as the ratio of the level in a tissue or fluid to that in plasma or blood.

Series [1] concerns P-gp (Mdr1a/b). The conditions noted are these: mouse, in vivo, po, 50 mg/kg.
The test system of series [2] is P-gp (Mdr1a/b) and Bcrp1/Abcg2. The following applies: mouse, in vivo.
Series [3] concerns the target T1, human MRP4 (Homo sapiens, UniProt O15439).
T1 sequence (O15439 1-1325): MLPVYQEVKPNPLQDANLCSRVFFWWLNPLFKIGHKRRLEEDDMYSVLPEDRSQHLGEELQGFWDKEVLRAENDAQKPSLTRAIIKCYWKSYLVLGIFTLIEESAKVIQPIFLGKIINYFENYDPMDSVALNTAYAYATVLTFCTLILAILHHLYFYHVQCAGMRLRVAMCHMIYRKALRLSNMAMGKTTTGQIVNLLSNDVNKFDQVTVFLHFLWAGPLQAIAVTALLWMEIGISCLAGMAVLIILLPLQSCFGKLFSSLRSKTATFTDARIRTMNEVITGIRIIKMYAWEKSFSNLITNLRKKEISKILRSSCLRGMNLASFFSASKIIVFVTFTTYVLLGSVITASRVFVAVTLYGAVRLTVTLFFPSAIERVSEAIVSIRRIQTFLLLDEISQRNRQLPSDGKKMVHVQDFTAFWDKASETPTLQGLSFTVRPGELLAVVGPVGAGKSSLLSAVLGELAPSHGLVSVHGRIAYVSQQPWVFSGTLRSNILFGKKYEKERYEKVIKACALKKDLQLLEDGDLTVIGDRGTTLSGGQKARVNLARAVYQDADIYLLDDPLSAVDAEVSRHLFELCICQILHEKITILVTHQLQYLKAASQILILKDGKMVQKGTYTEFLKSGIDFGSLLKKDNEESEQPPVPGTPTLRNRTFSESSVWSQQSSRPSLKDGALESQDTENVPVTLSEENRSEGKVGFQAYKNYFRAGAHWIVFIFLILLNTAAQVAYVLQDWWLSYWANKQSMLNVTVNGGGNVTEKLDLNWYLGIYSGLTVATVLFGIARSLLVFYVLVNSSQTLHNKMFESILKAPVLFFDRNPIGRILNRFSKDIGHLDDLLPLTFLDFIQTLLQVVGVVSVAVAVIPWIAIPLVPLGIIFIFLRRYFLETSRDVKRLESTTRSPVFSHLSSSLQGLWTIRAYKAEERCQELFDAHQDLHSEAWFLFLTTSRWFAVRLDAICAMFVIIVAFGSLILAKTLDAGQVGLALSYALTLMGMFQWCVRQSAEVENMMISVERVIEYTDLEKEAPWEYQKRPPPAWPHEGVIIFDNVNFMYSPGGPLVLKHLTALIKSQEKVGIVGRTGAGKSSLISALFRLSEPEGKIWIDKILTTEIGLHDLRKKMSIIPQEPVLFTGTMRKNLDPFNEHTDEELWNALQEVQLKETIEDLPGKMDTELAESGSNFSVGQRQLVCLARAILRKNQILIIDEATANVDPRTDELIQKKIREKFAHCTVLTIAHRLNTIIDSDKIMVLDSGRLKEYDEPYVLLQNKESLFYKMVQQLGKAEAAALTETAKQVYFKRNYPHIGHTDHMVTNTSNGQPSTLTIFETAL
Description: Intracellular accumulation in Saos2-MRP4 cells vs Saos2-pcDNA3.1. The conditions noted are these: Saos2-MRP4 vs Saos2-pcDNA3.1, 0.5 μg/mL, 37°C.

The format of series [4] is in vivo, mouse. The following applies: for Mean AUC0-24,Plasma compared to wild-type mice: mouse, in vivo, po, 50 mg/kg.
Series [5] concerns the target T2, OAT2 (Homo sapiens, UniProt Q9Y694).
T2 sequence (Q9Y694 1-548): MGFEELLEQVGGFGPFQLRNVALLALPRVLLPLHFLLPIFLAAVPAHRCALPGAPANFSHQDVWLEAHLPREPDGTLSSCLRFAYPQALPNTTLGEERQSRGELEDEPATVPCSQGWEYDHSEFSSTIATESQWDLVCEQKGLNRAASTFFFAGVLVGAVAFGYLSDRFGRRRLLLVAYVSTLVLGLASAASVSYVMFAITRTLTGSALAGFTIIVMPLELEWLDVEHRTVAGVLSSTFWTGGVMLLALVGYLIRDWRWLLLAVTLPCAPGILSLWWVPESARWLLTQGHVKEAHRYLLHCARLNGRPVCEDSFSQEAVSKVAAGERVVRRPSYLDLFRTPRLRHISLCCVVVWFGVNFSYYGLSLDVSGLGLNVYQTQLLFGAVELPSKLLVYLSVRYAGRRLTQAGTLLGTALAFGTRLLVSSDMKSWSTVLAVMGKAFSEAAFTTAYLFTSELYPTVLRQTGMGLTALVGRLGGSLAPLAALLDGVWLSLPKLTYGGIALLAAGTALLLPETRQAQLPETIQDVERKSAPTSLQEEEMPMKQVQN
Nature of the series: Uptake in HEK-293 cells transfected with OAT2 vs empty vector. It is filed as in vitro ADME. The following applies: HEK-293/OAT2.

Series [6] has as its target T3, OCT1 (Homo sapiens, UniProt O15245).
T3 sequence (O15245 1-554): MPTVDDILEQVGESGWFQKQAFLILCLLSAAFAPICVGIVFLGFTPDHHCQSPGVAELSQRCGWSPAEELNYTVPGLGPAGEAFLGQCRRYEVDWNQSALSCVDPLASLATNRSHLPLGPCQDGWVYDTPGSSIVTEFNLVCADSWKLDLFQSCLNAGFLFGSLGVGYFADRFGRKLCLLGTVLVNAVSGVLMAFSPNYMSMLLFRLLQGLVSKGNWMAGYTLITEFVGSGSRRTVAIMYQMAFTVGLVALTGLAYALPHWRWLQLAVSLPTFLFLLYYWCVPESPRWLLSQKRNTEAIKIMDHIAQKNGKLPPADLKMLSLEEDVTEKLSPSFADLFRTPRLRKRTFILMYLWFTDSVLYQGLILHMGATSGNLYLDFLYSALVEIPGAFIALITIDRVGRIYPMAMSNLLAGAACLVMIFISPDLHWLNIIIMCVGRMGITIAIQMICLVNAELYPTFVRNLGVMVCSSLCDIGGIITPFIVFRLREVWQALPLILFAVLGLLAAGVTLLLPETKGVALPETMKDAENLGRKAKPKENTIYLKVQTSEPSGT
Nature of the series: Uptake in HEK-293 cells transfected with OCT1 vs empty vector. It is filed as in vitro ADME. The conditions noted are these: HEK-293/OCT1.

The test system of series [7] is Bcrp1/Abcg2. Description: in vivo. The conditions noted are these: mouse, brain ECF (relative to unbound plasma), po, 50 mg/kg.
Series [8] has as its system Mrp4/Abcc4. Description: in vivo. The conditions noted are these: mouse, brain ECF (relative to unbound plasma), po, 50 mg/kg.

With `C#Cc1cccc(Nc2ncnc3cc(OCCOC)c(OCCO)cc23)c1` [OSI-420], the “PBrain (brain ECF-to-unbound plasma AUC0-24 ratio)” value in series [1] came out at 0.04±0.02. Moreover, the “Brain penetration relative to wild-type mice” value in series [2] stood at 4 fold. For the same compound, the “Intracellular accumulation vs control cells” value in series [3] is on record as “did not show a significant difference”.

`C#Cc1cccc(Nc2ncnc3cc(OCCOC)c(OCCOC)cc23)c1` [erlotinib, Erlotinib]: the “Mean AUC0-24,Plasma compared to wild-type mice” value in series [4] (Abcc4−/−) was determined as 0.9 fold; in series [4] (Abcg2−/−) it was 1.25 fold; in series [4] (Mdr1a/b−/−), 0.9 fold; in series [4] (Mdr1a/b−/−Abcg2−/−) it was 1.3 fold. Further, the “Tolerability of single dose” value in series [4] (single oral dose 50 mg/kg, all strains) is “tolerated well”. Further, the Transport by transporter entry in series [5] and in series [6] was “not found to transport” in each case. Moreover, the Kp in series [7] was 1.4 ± 0.9; in series [8], 0.32 ± 0.24. For the same compound, the “Intracellular accumulation vs control cells” value in series [3] is given as “did not show a significant difference”.
